What all share (test): in vitro anti-bacterial activity, two-fold agar plate dilution method
Common to all, as to assay type: cell-based

Assay [1] concerns Serratia marcescens. Here is the method:
(§1) The agent for preventing and treating bacterial infections was tested for in vitro anti-bacterial activity by the following two-fold agar plate dilution method. Each test strain was incubated for 20 hours in a bouillon for measuring sensitivity to obtain a test culture (containing about […]). Portions of sensitivity measuring agar medium containing varying concentrations of the antibacterial agent were each innoculated with a 0.005 ml portion of the culture, followed by incubation at 37° C. for 20 hours. The minimum growth inhibitory concentration (MIC) in μg/ml was then determined.
(§2) MIC=minimum inhibitory concentration

Assay [2] relates to Proteus mirabilis. The procedure: as §1, §2
The subject of assay [3] is Staphylococcus aureus 209P. The conditions noted are these: Staphylococcus aureus 209P, agar dilution, 37° C., 20 hours. Here is the method:
as §1, §2

The subject of assay [4] is Klebsiella pneumoniae. The procedure:
as §1, §2

Assay [5] relates to Proteus vulgaris. The procedure: as §1, §2
Assay [6] concerns Pseudomonas cepacia. The conditions noted are these: 37° C., 20 hours. The procedure: as §1, §2
The subject of assay [7] is Escherichia coli NIHJ-JC2. The conditions noted are these: Escherichia coli NIHJ-JC2, agar dilution, 37° C., 20 hours. Here is the method: as §1, §2
For assay [8], the system named is Pseudomonas aeruginosa. Here is the method:
as §1, §2

The test system of assay [9] is Escherichia coli CSH(RE45). The conditions noted are these: 37° C., 20 hours. The procedure: as §1, §2
[10] abbreviates: agar dilution, 37° C., 20 hours.
Setting [11] is: agar dilution, 37° C., 20 hours, read-out: MIC.
The mark [12] stands for this setting: Burkholderia cepacia, read-out: MIC.

Values after ≈ are worked out from the molar mass of the structure shown. Read-outs that look alike come from different tables or passages of the source.

Consider “7-{2-(2-aminothiazole-4-yl)-2-[potassium(2,2-dimethylacetate)oxyimino]acetamide}-3-(3-acetophenyl-1-imidazoliomethyl)-3-cephem-4-carboxylate”, for which the MIC is 1.56 µg/mL in [1] (setting [10]); 0.2 µg/mL in assay [2] (setting [10]); 6.25 µg/mL in assay [3]; 1.56 µg/mL in assay [4] (setting [10]); 0.2 µg/mL in assay [5] (setting [10]); 25 µg/mL in assay [6]. The minimal inhibitory concentration (MIC) in assay [7] was 0.39 µg/mL; in [8] (setting [10]), 12.5 µg/mL; in assay [9], 0.2 µg/mL.
In the case of `C=CCON=C(C(=O)NC1C(=O)N2C(C(=O)[O-])=C(Cn3cc[n+](CC(=O)c4ccccc4)c3)CSC12)c1csc(N)n1` (stereo not drawn) [B, 7-[2-(2-aminothiazole-4-yl)-2-(2-propenyloxyimino)acetamide]-3-(3-acetophenyl-1-imidazoliomethyl)-3-cephem-4-carboxylate], the MIC was 1.56 µg/mL (≈ 2.57 µM) in [1] (setting [10]); 0.78 µg/mL (≈ 1.28 µM) in assay [2] (setting [10]); 0.20 µg/mL (≈ 0.329 µM) in assay [3]; 0.39 µg/mL (≈ 0.642 µM) in assay [4] (setting [10]); 0.78 µg/mL (≈ 1.28 µM) in assay [5] (setting [10]); 1.56 µg/mL (≈ 2.57 µM) in [6]. Further, the MIC in [7] is 0.39 µg/mL (≈ 0.642 µM); in [8] (setting [10]), 6.25 µg/mL (≈ 10.3 µM); in assay [9] it was 0.10 µg/mL (≈ 0.165 µM).
`C=CCO/N=C(\C(=O)NC1C(=O)N2C(C(=O)[O-])=C(C[n+]3ccn(-c4ccc(O)cc4)c3)CSC12)c1csc(N)n1` (stereo not drawn) [C, 7-[2-(2-aminothiazole-4-yl)-2-(2-propenyloxyimino)acetamide]-3-[3-(4-hydroxyphenyl)-1-imidazoliomethyl]-3-cephem-4-carboxylate]: the MIC is 3.12 µg/mL (≈ 5.36 µM) in assay [1] (setting [11]); 0.78 µg/mL (≈ 1.34 µM) in [2] (setting [11]); 0.39 µg/mL (≈ 0.671 µM) in assay [3] (read-out: MIC); 0.78 µg/mL (≈ 1.34 µM) in [4] (setting [11]); 0.78 µg/mL (≈ 1.34 µM) in [5] (setting [11]); 6.25 µg/mL (≈ 10.7 µM) in assay [6] (setting [12]). Moreover, the minimal inhibitory concentration (MIC) in [7] (NIHJJC2, read-out: MIC) was 0.39 µg/mL (≈ 0.671 µM); in [8] (setting [11]), 12.5 µg/mL (≈ 21.5 µM); in [9] (read-out: MIC), 0.2 µg/mL (≈ 0.344 µM).
Turning to `C=CCO/N=C(\C(=O)NC1C(=O)N2C(C(=O)[O-])=C(C[n+]3ccn(CC=C)c3)CSC12)c1csc(N)n1` (stereo not drawn) [Compound A, 7-[2-(2-aminothiazole-4-yl)-2-(2-propenyloxyimino)acetamide]-3-[3-(2-propenyl)-1-imidazoliomethyl]-3-cephem-4-carboxylate], the MIC was 0.78 µg/mL (≈ 1.47 µM) in assay [1] (20 h); 3.13 µg/mL (≈ 5.91 µM) in assay [2] (20 h); 0.78 µg/mL (≈ 1.47 µM) in assay [3] (read-out: MIC); 1.56 µg/mL (≈ 2.95 µM) in assay [4] (20 h); 1.56 µg/mL (≈ 2.95 µM) in assay [5] (20 h); 6.25 µg/mL (≈ 11.8 µM) in assay [6] (setting [12]). Moreover, the MIC is 0.78 µg/mL (≈ 1.47 µM) in [7] (NIHJJC2, read-out: MIC); 6.25 µg/mL (≈ 11.8 µM) in assay [8] (setting [11]); 0.39 µg/mL (≈ 0.736 µM) in assay [9] (read-out: MIC).
Take `C#CCn1cc[n+](CC2=C(C(=O)[O-])N3C(=O)C(NC(=O)/C(=N\OC)c4csc(N)n4)C3SC2)c1` (stereo not drawn) [Compound G, 7-[2-(2-aminothiazole-4-yl)-2-methoxyiminoacetamide]-3-[3-(2-propynyl)-1-imidazoliomethyl]-3-cephem-4-carboxylate]: the MIC turned out to be 1.56 µg/mL (≈ 3.11 µM) in assay [1] (20 h); 0.2 µg/mL (≈ 0.399 µM) in assay [2] (20 h); 0.78 µg/mL (≈ 1.56 µM) in [3] (read-out: MIC); 0.1 µg/mL (≈ 0.199 µM) in assay [4] (20 h); 0.2 µg/mL (≈ 0.399 µM) in assay [5] (20 h); 25 µg/mL (≈ 49.8 µM) in assay [6] (setting [12]). The MIC was 0.05 µg/mL (≈ 0.0997 µM) in assay [7] (NIHJJC2, read-out: MIC); 6.25 µg/mL (≈ 12.5 µM) in assay [8] (setting [11]); 0.2 µg/mL (≈ 0.399 µM) in assay [9] (read-out: MIC).
For `C=Cn1cc[n+](CC2=C(C(=O)[O-])N3C(=O)C(NC(=O)/C(=N\OC(C)(C)C(=O)O)c4csc(N)n4)C3SC2)c1` (stereo not drawn) [Compound M, 7-{2-(2-aminothiazole-4-yl)-2-[potassium(2,2-dimethylacetate)oxyimino]acetamide}-3-(3-vinyl-1-imidazoliomethyl)-3-cephem-4-carboxylate], the MIC in assay [1] (20 h) amounted to 0.78 µg/mL; in assay [2] (20 h), 0.1 µg/mL; in assay [3] (read-out: MIC), 6.25 µg/mL; in [4] (20 h), 0.39 µg/mL; in [5] (20 h), 0.1 µg/mL; in assay [6] (setting [12]) it was 12.5 µg/mL. Moreover, the MIC in assay [7] (NIHJJC2, read-out: MIC) came to 0.2 µg/mL; in assay [8] (20 h) it was 3.13 µg/mL; in assay [9] (read-out: MIC), 0.1 µg/mL.
For `C=CCCn1c[n+](CC2=C(C(=O)[O-])N3C(=O)C(NC(=O)/C(=N\OC(C)(C)C(=O)O)c4csc(N)n4)C3SC2)c2ccccc21` (stereo not drawn) [Compound S, 7-{2-(2-aminothiazole-4-yl)-2-[potassium(2,2-dimethylacetate)oxyimino]acetamide}-3-[benz-3-N-(3-butenyl)-1-imidazoliomethyl]-3-cephem-4-carboxylate], the MIC amounted to 3.13 µg/mL in [1] (20 h); 3.13 µg/mL in [2] (20 h); 0.78 µg/mL in assay [3] (read-out: MIC); 3.13 µg/mL in assay [4] (20 h); 0.78 µg/mL in [5] (20 h); 25 µg/mL in assay [6] (setting [12]). In addition, the minimum inhibitory concentration (MIC) is 0.78 µg/mL in assay [7] (NIHJJC2, read-out: MIC); 6.25 µg/mL in [8] (setting [11]); 0.39 µg/mL in assay [9] (read-out: MIC).
Take `C#CCn1cc[n+](CC2=C(C(=O)[O-])N3C(=O)C(NC(=O)/C(=N\OCC=C)c4csc(N)n4)C3SC2)c1` (stereo not drawn) [D, 7-[2-(2-aminothiazole-4-yl)-2-(2-propenyloxyimino)acetamide]-3-[3-(2-propynyl)-1-imidazoliomethyl]-3-cephem-4-carboxylate]: the minimum inhibitory concentration (MIC) in assay [1] (setting [11]) stood at 3.13 µg/mL (≈ 5.93 µM); in assay [2] (setting [11]), 1.56 µg/mL (≈ 2.96 µM); in assay [3] (read-out: MIC), 0.78 µg/mL (≈ 1.48 µM); in assay [4] (20 h), 0.78 µg/mL (≈ 1.48 µM); in [5] (setting [11]) it was 1.56 µg/mL (≈ 2.96 µM); in [6] (setting [12]), 12.5 µg/mL (≈ 23.7 µM). Further, the MIC is 0.78 µg/mL (≈ 1.48 µM) in assay [7] (NIHJJC2, read-out: MIC); 12.5 µg/mL (≈ 23.7 µM) in assay [8] (setting [11]); 0.78 µg/mL (≈ 1.48 µM) in [9] (read-out: MIC).
For the compound `C=CCO/N=C(\C(=O)NC1C(=O)N2C(C(=O)[O-])=C(C[n+]3ccn(C)c3)CSC12)c1csc(N)n1` (stereo not drawn) [E, 7-[2-(2-aminothiazole-4-yl)-2-(2-propenyloxyimino)acetamide]-3-(3-methyl-1-imidazoliomethyl)-3-cephem-4-carboxylate], the minimum inhibitory concentration (MIC) is 1.56 µg/mL (≈ 3.1 µM) in assay [1] (setting [11]); 0.78 µg/mL (≈ 1.55 µM) in assay [2] (setting [11]); 0.78 µg/mL (≈ 1.55 µM) in assay [3] (read-out: MIC); 0.02 µg/mL (≈ 0.0397 µM) in assay [4] (setting [11]); 0.39 µg/mL (≈ 0.774 µM) in assay [5] (setting [11]); greater than 50 µg/mL in assay [6] (setting [12]). The minimal inhibitory concentration (MIC) came to 0.2 µg/mL (≈ 0.397 µM) in assay [7] (NIHJJC2, read-out: MIC); 12.5 µg/mL (≈ 24.8 µM) in assay [8] (setting [11]); 0.05 µg/mL (≈ 0.0993 µM) in assay [9] (read-out: MIC).
As for `C=CCn1cc[n+](CC2=C(C(=O)[O-])N3C(=O)C(NC(=O)/C(=N\OC)c4csc(N)n4)C3SC2)c1` (stereo not drawn) [F, 7-[2-(2-aminothiazole-4-yl)-2-methoxyiminoacetamide]-3-[3-(2-propenyl)-1-imidazoliomethyl]-3-cephem-4-carboxylate], the minimum inhibitory concentration (MIC) in assay [1] (setting [11]) turned out to be 0.78 µg/mL (≈ 1.55 µM); in [2] (20 h) it was 0.39 µg/mL (≈ 0.774 µM); in [3] (read-out: MIC), 6.25 µg/mL (≈ 12.4 µM); in assay [4] (20 h), 0.1 µg/mL (≈ 0.199 µM); in assay [5] (20 h) it was 0.39 µg/mL (≈ 0.774 µM); in assay [6] (setting [12]), 50 µg/mL (≈ 99.3 µM). Besides, the minimal inhibitory concentration (MIC) in [7] (NIHJJC2, read-out: MIC) was 0.1 µg/mL (≈ 0.199 µM); in [8] (setting [11]) it was 25 µg/mL (≈ 49.6 µM); in [9] (read-out: MIC), 0.2 µg/mL (≈ 0.397 µM).
`C=CCn1cc[n+](CC2=C(C(=O)[O-])N3C(=O)C(NC(=O)/C(=N\OC(C)(C)C(=O)O)c4csc(N)n4)C3SC2)c1` (stereo not drawn) [H, 7-{2-(2-aminothiazole-4-yl)-2-[potassium(2,2-dimethylacetate)oxyimino]acetamide}-3-[3-(2-propenyl)-1-imidazoliomethyl]-3-cephem-4-carboxylate]: the minimal inhibitory concentration (MIC) in assay [1] (setting [11]) was determined as 0.78 µg/mL; in assay [2] (setting [11]), 0.2 µg/mL; in assay [3] (read-out: MIC), 5 µg/mL; in assay [4] (setting [11]), 0.78 µg/mL; in [5] (setting [11]), 0.1 µg/mL; in assay [6] (setting [12]), 6.25 µg/mL. Moreover, the minimum inhibitory concentration (MIC) in [7] (NIHJJC2, read-out: MIC) came to 0.2 µg/mL; in assay [8] (setting [11]) it was 3.12 µg/mL; in [9] (read-out: MIC), 0.1 µg/mL.

Source of the values: patent US4906623A, “3-Imidazolium cephalosporin derivatives” (Otsuka Kagaku Kabushiki Kaisha, priority 1985, dated 1990).
